One data set has as its target rhIDO1 (Homo sapiens, UniProt P14902). In words: Enzyme-based IDO1 activity assay (kynurenine absorbance at 492 nm). To be noted: rhIDO1 0.05 μM, 37 °C, 45 min; read-out: IDO IC50. It counts as biochemical.
Another data set has as its target rhTDO (Homo sapiens, UniProt P48775). Briefly: Enzyme-based TDO activity assay (kynurenine absorbance at 492 nm). It counts as biochemical.
The test system of the next data set is MCF7. In words: Cell viability MTT assay, 72 h. To be noted: Homo sapiens, at 50 μM, shown when calculated IC50 >50 μM, read-out: MCF7 inhibition rate (%) at 50 μM. It counts as cell-based. How it is done: (§1) B16-F10 mouse melanoma cells, NCI-H460 human lung cancer cell line and MCF7 were obtained from American Type Culture Collection (ATCC). All the cell lines were cultured with Dulbecco’ modified Eagle’s medium (DMEM) (Invitrogen Corporation, Waltham, MA, USA) supplemented with 10% fetal bovine serum (FBS) (Hyclone, Waltham, MA, USA) and 1% penicillin streptomycin (Invitrogen) at 37 °C in 5% CO2.
(§2) The in vitro inhibitory effects of the compounds were measured by MTT assay. Briefly, different kinds of cells were plated in 96-well plates at a density of 2000/well. After attachment for overnight at 37 °C, the cells were treated with the compounds at various concentrations. After 72 h culture, the MTT reagent was added to each well, and plates were incubated for another 4 h at 37 °C. Then, the blue-purple crystal formamidine was dissolved in DMSO after discarding the supernatant. Samples were measured using microplate reader at a wavelength of 570 nm (Biotek Instruments, Inc., Winooski, VT, USA). IC50 values were calculated with GraphPad Prism 8.0 software.

Data set [1] concerns NCI-H460 human lung cancer cell line. Briefly: Cell viability MTT assay, 72 h. It counts as cell-based. To be noted: at 50 μM, shown when calculated IC50 >50 μM, read-out: H460 inhibition rate (%) at 50 μM. How it is done: as §1, §2
Data set [2] is described as follows: Single dose pharmacokinetic study in male ICR mice. As to conditions: for half-life: read-out: t1/2β (converted). It counts as in vivo. How it is done:
The animal Care and Welfare Committee of Institute of Materia Medica, Chinese Academy of Medical Sciences approved all animal care, housing, and laboratory procedures. Male ICR mice were used in the single dose pharmacokinetic studies. Compound DX-03-12 was prepared as 3 mg/mL suspension with 0.5% CMC (containing 0.3% Tween 80) for oral use and was formulated as 3 mg/mL solution with 5% DMSO in saline for intravenous injection. Twenty mice were divided into two groups, 10 in each group. After fasting 12 h with free access to water, mice were treated with a 3 mg/kg i.v. or 30 mg/kg oral dose of compound DX-03-12. Blood samples (50 µL) were collected at 5, 15, 30 min, 1, 2, 4, 6, 8, 12 and 24 h after oral administration and 2, 5, 15, 30 min, 1, 2, 4, 6, 8, 12 and 24 h after intravenous injection. After centrifugation, the plasma samples (15 µL) were precipitated by five volumes of acetonitrile. The supernatant were analyzed by liquid chromatography/tandem mass spectrometry (Agilent Technologies, Santa Clara, CA, USA) with a Zobax C18 column (50 mm × 2.1 mm, 3.5 µm). Compound detection was performed with the mass spectrometer in MRM (multiple reaction monitoring, Agilent Technologies, Santa Clara, CA, USA) negative ionization mode. The selected reaction monitoring transitions were m/z 348.5→160 for compound DX-03-12. The pharmacokinetic parameters were calculated with WinNonlin software V6.3 using non-compartmental analysis (Pharsight Corporation, Mountain View, CA, USA).

Data set [3] relates to mouse melanoma cells B16F10. Briefly: In vivo anti-tumor efficacy, B16F10 subcutaneous xenograft model. On the set-up: species or system mice. As to conditions: 60 mg/kg/day, 19 days treatment. How it is done:
C57BL/6 mice were obtained from Beijing Vital River Laboratory Animal Technology Co., Ltd. (Beijing Vital River Laboratory Animal Technology Co., Ltd, Beijing, China). Studies involving mice were approved by the Experimental Animal Management and Welfare Committee at the Institute of Materia Medica, Peking Union Medical College.
(§3) The mouse melanoma cells B16F10 were cultured and harvested in saline. At day 0 of the experiment, 1 × 10^6 cells were injected subcutaneously into mice, and treatment was initiated at day 1 following the mice enrolled randomly in control and experimental groups. For control group, 0.5% CMCNa was orally administered every day. Compound DX-03-12 was dissolved in 0.5% CMC for oral treatment or dissolved in saline for intraperitoneal treatment. When the mice were sacrificed, the tumors were stripped and weighted. […] The statistical analysis was performed with GraphPad Prism 8.0 software and the significance level was evaluated with a one-way ANOVA model.

The nature of data set [4]: Body weight and white blood cells in B16F10 xenograft mice. It counts as in vivo. To be noted: 30 or 60 mg/kg/day oral or i.p. As to the method:
as §3

A further data set relates to pathway. As to conditions: reported value; cited from earlier work.
[5] abbreviates: mouse, plasma, PO 30 mg/kg, male ICR mice.
Where [6] appears, read: mouse, plasma, iv 3 mg/kg, male ICR mice.

Consider 2 molecules from PMC6600671, “Design and Synthesis of Indoleamine 2,3-Dioxygenase 1 Inhibitors and Evaluation of Their Use as Anti-Tumor Agents” (Molecules, 2019).

Where “and” joins values, the source holds several entries; their conditions need not be identical. Equal entries are not always repeated. Entries after “also recorded” stand apart in the source; their conditions may differ. Where two headings read alike, the source gives them in different places.

As usually defined, the IC50 is the point on the concentration scale where inhibition reaches its midpoint. As usually defined, the inhibition is the drop in the measured response relative to a control, in per cent. Usually Vss stands for a proportionality between amount in the body and measured concentration, not a real space. A low value points to confinement near the circulation. For orientation: bioavailability means dose-corrected exposure relative to a reference, in per cent. As usually defined, the AUC(0-inf) is total exposure, with the tail of the curve extrapolated. Low values mean low exposure, high ones high exposure. The AUC(0-t) is exposure summed from dosing to a finite time, without extrapolation to infinity. A higher AUC(0-t) goes with high exposure. The Tmax is the time from dosing to the highest level. One may read the clearance as a measure of how efficiently the substance is removed, as volume per time. The low end stands for a low capacity for elimination, the high end for a high capacity for elimination. A word on the Cmax: it is the highest concentration seen after dosing.

rhTDO, sequence (P48775 whole entry): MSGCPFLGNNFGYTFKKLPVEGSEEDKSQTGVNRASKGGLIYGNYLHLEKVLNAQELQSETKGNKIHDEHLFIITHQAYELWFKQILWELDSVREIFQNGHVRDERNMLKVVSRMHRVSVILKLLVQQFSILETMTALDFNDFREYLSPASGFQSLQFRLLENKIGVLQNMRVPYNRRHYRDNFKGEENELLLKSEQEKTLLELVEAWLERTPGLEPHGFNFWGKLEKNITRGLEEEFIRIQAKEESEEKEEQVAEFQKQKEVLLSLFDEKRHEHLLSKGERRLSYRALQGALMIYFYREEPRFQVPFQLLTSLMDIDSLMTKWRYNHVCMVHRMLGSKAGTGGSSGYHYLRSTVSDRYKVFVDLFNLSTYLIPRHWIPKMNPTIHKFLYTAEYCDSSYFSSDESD
rhIDO1, sequence (P14902 whole entry): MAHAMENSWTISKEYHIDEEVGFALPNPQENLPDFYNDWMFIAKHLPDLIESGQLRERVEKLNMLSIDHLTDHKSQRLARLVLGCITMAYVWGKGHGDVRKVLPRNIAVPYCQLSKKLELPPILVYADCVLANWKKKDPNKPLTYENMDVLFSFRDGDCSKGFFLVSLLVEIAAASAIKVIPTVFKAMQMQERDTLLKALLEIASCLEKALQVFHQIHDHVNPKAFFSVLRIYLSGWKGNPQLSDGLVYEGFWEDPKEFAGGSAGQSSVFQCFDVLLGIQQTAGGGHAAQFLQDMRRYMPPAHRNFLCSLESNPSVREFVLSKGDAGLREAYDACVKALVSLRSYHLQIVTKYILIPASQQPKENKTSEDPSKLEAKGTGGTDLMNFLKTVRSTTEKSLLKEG

In the case of `O=S(=O)(NCCCOc1ccccc1-c1cnc[nH]1)C(F)(F)F` [DX-03-12, N-(3-(2-(1H-imidazol-5-yl)phenoxy)propyl)-1,1,1-trifluoromethane sulfonamide], the IC50 at rhIDO1 stood at 300 nM. Moreover, the “TDO inhibition, in words” value on rhTDO is reported as “marginal”. For the same molecule, the inhibition at 50 µM on rhTDO (at 50 μM, shown when calculated IC50 >50 μM, read-out: TDO inhibition rate (%) at 50 μM) was 36.4%; with MCF7, 6.6%; in data set [1], 19.3%. Besides, in data set [2] (PO 30 mg/kg, male ICR mice, 30 mg/kg), the t1/2β was 4.6 h and 4.61 h. For the same molecule, the Vss in data set [2] (iv 3 mg/kg, male ICR mice, 3 mg/kg) was found to be 10.1 L/kg. The “plasma clearance as % of mouse hepatic blood flow” value in data set [2] (iv 3 mg/kg, hepatic blood flow 90 mL/min/kg) is reported as roughly 36%. The Vd in data set [2] (male, ICR, mouse, plasma, iv, 3 mg/kg, iv 3 mg/kg, male ICR mice, read-out: Vss) is 10 L/kg. Also, the half-life is 3.49 h in data set [2] (male, ICR, mouse, plasma, iv, 3 mg/kg, iv 3 mg/kg, male ICR mice) and roughly 4.6 h in data set [2] (male, ICR, mouse, plasma, po, 30 mg/kg, PO 30 mg/kg, male ICR mice). Also, the bioavailability in data set [2] (male, ICR, mouse, plasma, oral, 30 mg/kg, PO 30 mg/kg vs iv 3 mg/kg, male ICR mice, read-out: F% (oral bioavailability)) was roughly 96%. Besides, the figures for the AUC(0-inf) in data set [2] (setting [5]) and in data set [2] (setting [6]) were 13100 ng·h/mL and 1500 ng·h/mL, respectively. Further, the results for the AUC(0-t) in data set [2] (setting [5]) and in data set [2] (setting [6]) were 12900 ng·h/mL and 1350 ng·h/mL, respectively. Moreover, the values for the Tmax in data set [2] (setting [5]) and in data set [2] (setting [6]) were 1 h and 0.033 h, respectively. Also, the clearance in data set [2] (setting [6]) came out at 33.3 mL/min/kg. In addition, the Cmax was determined as 2960 ng/mL in data set [2] (mouse, PO 30 mg/kg, male ICR mice, plasma) and 2140 ng/mL in data set [2] (mouse, iv 3 mg/kg, male ICR mice, plasma). Further, the “decrease in tumor weight (tumor growth inhibition) vs control” value in data set [3] (i.p.) is given as 72.3%; in data set [3] (oral) it was 72.2%. In addition, in data set [4], the “effect on body weight of the mice” value is “no obvious weight loss; also recorded: no obvious effect”. Besides, in data set [4], the “effect on peripheral white blood cells” value is “no obvious effect”.

Regarding `Cn1cc(C[C@@H](N)C(=O)O)c2ccccc21` [indoximod], the IC50 with pathway was 450 nM.
